Measurements: patent US12091402B2 (Avilar Therapeutics, Inc., priority 2021, dated 2024)

How the values were obtained:
TNF [1] = target: T1, TNF (Homo sapiens, UniProt P01375); assay: Western blot of TNF degradation over time (Example 11, FIG. 24); type: cell-based; conditions: 0.5 μM compound
TNF [2] = target: T1, TNF; assay: Western blot of ASGPR mediated uptake of TNF (Example 12, FIG. 25); type: cell-based
TNFα = TNFα (Homo sapiens, UniProt P01375); assay: TNF FP assay; type: binding; conditions: TNF 20 nM, 25° C., 2 hours; read-out: TNFα FP IC50 KD
Sequence of TNFα (P01375 77-233 limits assumed): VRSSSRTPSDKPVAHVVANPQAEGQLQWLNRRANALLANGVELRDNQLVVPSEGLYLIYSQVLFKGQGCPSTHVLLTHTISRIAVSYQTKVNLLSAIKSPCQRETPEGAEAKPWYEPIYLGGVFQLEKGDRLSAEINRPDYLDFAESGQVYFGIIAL
Protocol: TNF (20 nM) and Compound 36 in 47 mM HEPES pH 6.5, 47 mM NaCl, 0.9 mM EDTA, 0.007% Triton X-100 were incubated at 25° C. for 2 hours. Fluorescence data was read with an Envision and plotted versus Compound 36 concentration and fit to a single-site binding model. This assay was used to calculate the FP data in Table 7.

ASGPR = target: T2, ASGPR (Homo sapiens, UniProt P07306); assay: Affinity to ASGPR by surface plasmon resonance (SPR)
T2 sequence (P07306 1-291): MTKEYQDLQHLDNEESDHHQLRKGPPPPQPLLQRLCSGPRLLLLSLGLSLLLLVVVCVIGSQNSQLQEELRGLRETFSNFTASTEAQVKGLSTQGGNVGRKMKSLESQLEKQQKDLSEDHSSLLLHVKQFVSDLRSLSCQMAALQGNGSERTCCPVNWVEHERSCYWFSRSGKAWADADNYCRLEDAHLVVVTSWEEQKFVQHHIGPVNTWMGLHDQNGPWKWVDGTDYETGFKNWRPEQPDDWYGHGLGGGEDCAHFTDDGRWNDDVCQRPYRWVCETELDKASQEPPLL

IgG-AF488 = assay: Western blot of IgG-AF488 degradation (Example 5, FIG. 10); type: cell-based
DNP-IgG = assay: Colocalization imaging of DNP-IgG uptake (Example 4, FIG. 11); type: cell-based
[3] = target: T3, ASGPR receptor on the cell surface (HepG2 cells) (Homo sapiens, UniProt P07306); assay: Ternary complex formation assay (flow cytometry, HepG2); type: cell-based; conditions: HepG2 cells
T3 construct: host or cells: HepG2
T3 sequence (P07306 1-291): T2 sequence (P07306 1-291)
T3 sequence (P07307 1-311 partner): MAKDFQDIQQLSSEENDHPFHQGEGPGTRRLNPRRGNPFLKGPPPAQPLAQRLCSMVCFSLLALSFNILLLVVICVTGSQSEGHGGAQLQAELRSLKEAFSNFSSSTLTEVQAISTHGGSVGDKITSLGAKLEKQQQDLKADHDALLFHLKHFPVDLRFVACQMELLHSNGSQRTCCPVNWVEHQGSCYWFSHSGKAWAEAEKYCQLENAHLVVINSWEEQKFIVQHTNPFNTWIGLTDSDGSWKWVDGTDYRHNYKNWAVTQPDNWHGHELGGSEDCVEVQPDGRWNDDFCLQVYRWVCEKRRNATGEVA
Method in brief: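 HepG2 cells (1×10^5/well) incubated 1 h at 4 °C with 100 nM AF488-labeled anti-human IgG plus serial IgG-based degrader, or 100 nM AF488 rabbit anti-DNP plus serial DNP-based degrader. After washing, cell-associated AF488 MFI read by flow cytometry; peak MFI marks optimal degrader concentration for ternary complex.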

HepG2 cells [4] = assay: Cellular uptake assay of AF488-labeled antibody (HepG2); type: cell-based
Method in brief: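 HepG2 cells given 100 nM AF488-labeled human IgG or DNP antibody plus serial dilutions of matching degrader (0.1% DMSO final), 6 h at 37° C. Methanol-fixed, DAPI-stained and imaged by high-content analysis. Value is the fraction of AF488-positive cells over total DAPI-counted cells.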

HepG2 cells [5] = assay: Cellular co-localization study (LAMP2 immunofluorescence); type: cell-based; conditions: 100 nM compound, 100 nM AF488-labeled DNP antibodies, 8 hours, FIG. 4
Protocol: To confirm that DNP-IgG was trafficked to the lysosome following uptake by the HepG2 cells, cells were stained with the lysosomal marker LAMP2, and the subcellular location of AF488-labeled DNP-IgG was visualized by immunofluorescence microscopy.
HepG2 cells were plated in DMEM supplemented with 10% FBS incubated for approximately 18 hours at 37° C./5% CO2. AF488-labeled DNP antibodies (100 nM) and either DMSO or 100 nM of Compound 28 were added to the cells and incubated at 37° C. for an additional 8 hours. Cells were fixed with 100% methanol for 20 minutes at −20° C. followed by incubation with blocking buffer (1×PBS containing 5% normal goat serum and 0.1% Triton X-100) for 1 hour at room temperature. Cells were stained with anti-LAMP2 (Abcam) at 4° C. for about 18 hours followed by treatment with goat anti-mouse IgG-AF647 for 2 hours at room temperature. Nuclei were stained with DAPI. Pictures were taken on a Leica fluorescence microscope at 40× magnification.

HepG2 cells [6] = assay: Cellular degradation assay of anti-DNP-AF488 antibody; type: cell-based; conditions: 0.2 μM compound, 1 μM anti-DNP-AF488, 16 hours uptake then wash, FIG. 3
Protocol: To observe degradation of IgG in cells, a mixture of fluorescently labeled DNP antibody and compound are added to HepG2 cells and cellular uptake occurs over 16 hours. Cells are then washed to remove extracellular antibody and compound and samples are taken at various time points after uptake to detect levels of intact and/or proteolytic fragments of the antibody heavy and light chains over time as a kinetic measurement of antibody degradation.
HepG2 cells were seeded in DMEM supplemented with 10% FBS into a 12-well plate at a final amount of 20,000 cells per well. After about 18 hours incubation, 1 μM anti-DNP-AF488 antibody and/or 0.2 μM Compound 28 was added to the cells and incubated for 16 hours. The next day, cells were washed once with cell culture media and replaced with cell culture medium lacking anti-DNP-AF488 antibody or Compound 28 and incubated for 0, 1, 2, 4, and 8 hours, respectively. Cells were washed and lysed in RIPA buffer with protease inhibitors. Cell lysates were separated by SDS-PAGE and the fluorescent anti-DNP-AF488 antibody degradation products were visualized by the iBright 1500 gel reader (ThermoFisher). Intracellular heavy and light chains of DNP-IgG are observed after 16 hours of uptake into HepG2 cells. […]

T1 sequence (P01375 77-233 limits assumed): as the sequence (P01375 77-233 limits assumed) above

Compound	degradation of TNF over time (western blot) (TNF [1])	ASGPR mediated uptake of TNF (western blot) (TNF [2])	IC50 (TNFα) [nM]	Kd (ASGPR) [nM]	ASGPR kd (ASGPR; Table 7) [s⁻¹]	degradation of IgG-AF488 (western blot) (IgG-AF488)	uptake of DNP-IgG (colocalization image) (DNP-IgG)	EC50 ([3]; EC50, half-maximal concentration with respect to the peak MFI (ternary complex formation), AF488-labeled DNP antibody, FIG. 1) [nM]	EC50 ([3]; Ternary Complex EC50 (nM), 100 nM AF488-labeled antibody, 1 hour at 4° C., class symbols) [nM]	EC50, half-maximal concentration with respect to the peak ratio of antibody-positive cells (cellular uptake) (HepG2 cells [4]; DNP-antibody, HepG2 cells, FIG. 2) [nM]	EC50 (HepG2 cells [4]; Homo sapiens, HepG2, 6 h, read-out: Uptake Assay EC50 (nM)) [nM]	Uptake of DNP-IgG and co-localization with lysosomal marker LAMP2 (HepG2 cells [5])	Loss of intact heavy chain of DNP-IgG observed after (HepG2 cells [6]) [h]	Loss of intact light chain of DNP-IgG observed after (HepG2 cells [6]) [h]
O=C(CCOCC(COCCC(=O)NCCOCCOCCOCCOC[C@H]1OC[C@H](Nc2nccc(C(F)(F)F)n2)[C@@H](O)[C@H]1O)NC(=O)COCCOCCOCC(=O)N1CCN(Cc2ccc(-c3c[nH]c4ccncc34)c(OCCc3ccc(-c4cccc5ccncc45)cc3)c2)CC1)NCCOCCOCCOCCOC[C@H]1OC[C@H](Nc2nccc(C(F)(F)F)n2)[C@@H](O)[C@H]1O [Compound 36, 3,3′-((2-(2-(2-(2-(2-(4-(3-(4-(isoquinolin-8-yl)phenethoxy)-4-(1H-pyrrolo[3,2-c]pyridin-3-yl)benzyl)piperazin-1-yl)-2-oxoethoxy)ethoxy)ethoxy)acetamido)propane-1,3-diyl)bis(oxy))bis(N-(1-((2R,3R,4R,5S)-3,4-dihydroxy-5-((4-(trifluoromethyl)pyrimidin-2-yl)amino)tetrahydro-2H-pyran-2-yl)-2,5,8,11-tetraoxatridecan-13-yl)propanamide)]	degradation of TNF	ASGPR mediated uptake of TNF	< 500	< 1	<0.01	–	–	–	–	–	–	–	–	–
O=C(CCOCC(COCCC(=O)NCCOCCOCCOCCOC[C@H]1OC[C@@H](Nc2nc(Cl)ns2)[C@@H](O)[C@H]1O)NC(=O)COCCOCCOCCNc1ccc([N+](=O)[O-])cc1[N+](=O)[O-])NCCOCCOCCOCCOC[C@H]1OC[C@@H](Nc2nc(Cl)ns2)[C@@H](O)[C@H]1O [Compound 28, 3,3′-((2-(2-(2-(2-(2-((2,4-dinitrophenyl)amino)ethoxy)ethoxy)ethoxy)acetamido)propane-1,3-diyl)bis(oxy))bis(N-(1-((2R,3R,4R,5R)-5-((3-chloro-1,2,4-thiadiazol-5-yl)amino)-3,4-dihydroxytetrahydro-2H-pyran-2-yl)-2,5,8,11-tetraoxatridecan-13-yl)propanamide)]	–	–	–	< 100	–	degradation of IgG-AF488	uptake of DNP-IgG	4.7	< 100	3.8	< 100	DNP-IgG was taken up into the cells and co-localized with the lysosomal marker LAMP2	1	8
